Measured values taken from US12357626B2, “Anthranilic acid-based compound, and Pin1 inhibitor, therapeutic agent for inflammatory diseases and therapeutic agent for cancer that use the same” (Amenis Bioscience, Inc., priority 2017, dated 2025).

Experiments:
Pin1 = molecular target: T1, Pin1 (Homo sapiens, UniProt Q13526); assay: Cell-based evaluation of Pin1 inhibition activity with AMPK phosphorylation level as index (293T cells, Western blot); parameters: key: +++: a higher level of AMPK phosphorylation is promoted, as compared with C1; ++: a similar level of AMPK phosphorylation is promoted, as compared with C1; +: a lower level of AMPK phosphorylation is promoted, as compared with C1; −: no or almost no promotion is found in AMPK phosphorylation; conditions: compound at 100 μM, 30 minutes, then 10 mM 2-DG for one hour, pAMPK level compared with C1
T1 construct: endogenous in cells; host or cells: 293T cells
Procedure: To evaluate the inhibitory activity of each compound synthesized in Example 1 against the function of Pin1, a cell-based assay was performed according to the method previously developed by the inventors (Yusuke Nakatsu et al., Journal of Biological Chemistry, 2015, Vol. 290, No. 40, pp. 24255-24266), in which the phosphorylation level of AMPK (AMP-activated protein kinase), a protein whose phosphorylation is inhibited by Pin1, was examined as an index.
Briefly, 293T cells were plated on a collagen-coated 24-well plate. Forty-eight hours later, each compound synthesized in the preceding example (at 100 μM) was added to the plate, and the plate was left to stand in an incubator for 30 minutes. Subsequently, 10 mM 2-DG was added to the plate, and one hour later, each sample was collected with a buffer containing mercaptoethanol and SDS.
SDS-PAGE and blotting were performed, and blocking was then performed with 3% BSA for 1 hour, according to conventional protocols. Subsequently, a pAMPK antibody (Cell Signaling; diluted 1:2000 in Can Get Signal Solution 1, Toyobo) as a primary antibody, and an HRP-linked anti rabbit IgG (GE Healthcare; diluted 1:4000 in Can Get Signal Solution 2, Toyobo) as a secondary antibody were allowed to react at ambient temperature for 1 hour prior to detection.
The inhibitory activity against the function of Pin1 was evaluated by comparing the inhibition levels between each compound and a known Pin1 inhibitor, C1, as indicated below:
(+++): a higher level of AMPK phosphorylation is promoted, as compared with C1;
(++): a similar level of AMPK phosphorylation is promoted, as compared with C1;
(+): a lower level of AMPK phosphorylation is promoted, as compared with C1;
(−): no or almost no promotion is found in AMPK phosphorylation.

[1] = tested on: non-alcoholic steatohepatitis (NASH) model mice (HFDT); conditions: intraperitoneal 2.5 mg/kg/day three times a week
Procedure: Animal experiments were performed using non-alcoholic steatohepatitis (NASH) model mice to test the compounds according to the present invention for the therapeutic effect on NASH.
NASH model mice (hereinafter referred to as “NASH mice”) were produced by feeding a high-fat diet containing trans fatty acids (HFDT) to individual male laboratory mice (C57BL/6J) for 8 weeks. The mice were divided into groups, and animal experiments were performed on a group of mice to which a compound according to the present invention (H-77) was administered intraperitoneally at a dose of 2.5 mg/kg/day three times a week, and a group of mice to which Juglone, a known Pin1 inhibitor, was administered intraperitoneally at a dose of 2.5 mg/kg/day three times a week, and a group of mice to which nothing was administered, during the 8-week HFDT feeding period. In addition, a normal diet was given to individual male laboratory mice (C57BL/6J) for 8 weeks to prepare control mice.

DU145 cells = assay: Cancer treatment study in nude mice implanted with DU145 tumors; format: in vivo, nude mice (BALB/c-slc-nu/nu mice); conditions: intraperitoneal 2.5 mg/kg/day 5 times a week for 9 weeks, versus control mice
Procedure: An animal experiment was performed using mice transplanted with cancer cells to test the therapeutic effects of the compounds according to the present invention on cancer.
A first tumor (DU145 cells) with Matrigel plug was implanted in the middle of the upper back of nude mice (BALB/c-slc-nu/nu mice).
Five weeks after the first implantation, a second tumor (DU145 cells) was implanted in the middle of the left and right sides of the back of the nude mice.
Intraperitoneal administration of a compound according to the present invention, H-77, at a dose of 2.5 mg/kg/day and a frequency of 5 times a week was started 6 weeks after the first implantation, at which the first tumor became measurable (at this timing, the second tumor was so small in size and not measurable), and was continued for 9 weeks. No compound was administered to a group of mice to prepare control mice.
The volume of the second tumor was so small and not measurable at the beginning of administration of the compound. Therefore, the result from the second tumor is expressed in volume (mm^3), but not in ratio.

[2] = tested on: NASH mice (methionine-choline-deficient diet, MCDD); assay: NASH treatment study in MCDD-fed NASH mice; format: in vivo, mice (C57BL/6J); conditions: NASH mice given MCDD for 8 weeks; intraperitoneal 2.5 mg/kg/day three times a week; FIG. 3
Procedure: Next, an animal experiment was performed on NASH mice that were produced by feeding a methionine-choline-deficient diet (MCDD).

T1 sequence (Q13526 whole entry): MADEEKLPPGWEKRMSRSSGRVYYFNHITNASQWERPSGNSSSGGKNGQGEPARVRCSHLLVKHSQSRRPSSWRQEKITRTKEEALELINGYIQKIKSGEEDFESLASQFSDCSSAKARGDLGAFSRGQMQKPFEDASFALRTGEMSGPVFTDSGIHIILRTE

Row | SMILES | Pin1 inhibition activity (Pin1) | other results
1 | COC(=O)c1cc(OCc2ccccc2)ccc1NC(=O)c1ccc2ccccc2c1 [Compound H-68] | + | 
2 | O=C(Nc1ccc(OCc2ccccc2)cc1C(=O)O)c1ccc2ccccc2c1 [Compound H-77] | +++ | liver weight ([1]; NASH mice given HFDT for 8 weeks, FIG. 1 (A)): increase in liver weight was reduced; blood AST (GOT) concentration ([1]; NASH mice given HFDT for 8 weeks, FIG. 1 (B)): AST value was decreased; fat accumulation in liver tissue (microscopic observation of sections) ([1]; NASH mice given HFDT, FIG. 2): reduced fat accumulation; tumor volume ratio of the first tumor (DU145 cells; first DU145 tumor, FIG. 4 (A)): tumor size growth was suppressed; volume of the second tumor (DU145 cells; second DU145 tumor, FIG. 4 (B)): tumor size growth was suppressed; hepatic fibrosis (liver tissue sections with Azan staining) [2]: hepatic fibrosis was significantly inhibited
3 | COC(=O)c1cc(OCc2ccc3ccccc3c2)ccc1NC(C)=O [Compound H-182] | ++ | 
4 | CC(=O)Nc1ccc(OCc2ccccc2)cc1C(=O)O [Compound H-296, reference compound] | − | 
5 | CC(=O)Nc1ccc(OCc2ccc3ccccc3c2)cc1C(=O)O [Compound H-297] | +++ | 
6 | COC(=O)c1cc(OCc2ccc3ccccc3c2)ccc1N [Compound H-300] | +++ | 
7 | O=C(O)c1cc(OCc2ccccc2)ccc1NS(=O)(=O)c1ccc2ccccc2c1 [Compound H-338] | + | 
8 | O=C1C=CC(=O)c2c(O)cccc21 [Juglone, reference compound] |  | death of the mice during the study ([1]; NASH mice given HFDT for 8 weeks): all dead within 8 weeks

Further lines, with some results ahead:

Row | Pin1 inhibition activity (Pin1) | SMILES | other results
9 | + | O=C(Nc1ccc(OCc2ccccc2)cc1C(=O)O)c1ccc2ccccc2n1 [Compound H-339] | 
10 | + | O=C(COc1ccc2ccccc2c1)Nc1ccc(OCc2ccccc2)cc1C(=O)O [Compound H-362] | 
11 | + | O=C(Nc1ccc(OCc2ccccc2)cc1C(=O)O)c1cccc(Oc2ccccc2)c1 [Compound H-363] | 
12 | + | O=C(O)c1cc(OCc2ccccc2)ccc1NC(=O)c1cccc2ccccc12 [Compound H-370] | 
13 | + | O=C(Nc1ccc(OCc2ccc3ccccc3c2)cc1C(=O)O)c1ccc2ccccc2c1 [Compound H-371] | 
14 | + | O=C(O)c1cc(OCc2ccc3ccccc3c2)ccc1NS(=O)(=O)c1ccc2ccccc2c1 [Compound H-376] | 
15 | + | Nc1ccc(OCc2ccc3ccccc3c2)cc1C(=O)O [Compound H-443] | 
